The text below walks through data of patent publication US9145372B2, “Pyridazine derivatives, compositions and methods for treating cognitive impairment” (AGENEBIO, INC., priority 2010, dated 2015).

Structures are written as SMILES. Entries after “also recorded” stand apart in the source; their conditions may differ. Where only a bound is given, the exact number is not on record here.

The subject of one assay is aged-impaired (AI) rats. As to the kind of experiment: Radial Arm Maze (RAM) behavioral task, spatial memory retention. In kind it is in vivo, rat. The note with it: 3 mg/kg i.p., two-hour delay RAM. As for the experimental part:
The effects of methyl 3,5-diphenylpyridazine-4-carboxylate on the in vivo spatial memory retention of aged-impaired (AI) rats were assessed in a Radial Arm Maze (RAM) behavioral task using vehicle control and four different dosage levels of methyl 3,5-diphenylpyridazine-4-carboxylate (0.1 mg/kg, 0.3 mg/kg, 1 mg/kg and 3 mg/kg, ip). RAM behavioral tasks were performed on eight AI rats. All five treatment conditions (vehicle and four dosage levels) were tested on all eight rats.
The RAM apparatus used consisted of eight equidistantly-spaced arms. An elevated maze arm (7 cm width×75 cm length) projected from each facet of an octagonal center platform (30 cm diameter, 51.5 cm height). Clear side walls on the arms were 10 cm high and were angled at 65° to form a trough. A food well (4 cm diameter, 2 cm deep) was located at the distal end of each arm. Froot Loops™ (Kellogg Company) were used as rewards. Blocks constructed of Plexiglas™ (30 cm height×12 cm width) could be positioned to prevent entry to any arm. Numerous extra maze cues surrounding the apparatus were also provided.
The AI rats were initially subjected to a pre-training test (Chappell et al. Neuropharmacology 37: 481-487, 1998). The pre-training test consisted of a habituation phase (4 days), a training phase on the standard win-shift task (18 days) and another training phase (14 days) in which a brief delay was imposed between presentation of a subset of arms designated by the experimenter (e.g., 5 arms available and 3 arms blocked) and completion of the eight-arm win-shift task (i.e., with all eight arms available).
In the habituation phase, rats were familiarized to the maze for an 8-minute session on four consecutive days. In each of these sessions, food rewards were scattered on the RAM, initially on the center platform and arms and then progressively confined to the arms. After this habituation phase, a standard training protocol was used, in which a food pellet was located at the end of each arm. Rats received one trial each day for 18 days. Each daily trial terminated when all eight food pellets had been obtained or when either 16 choices were made or 15 minutes had elapsed. After completion of this training phase, a second training phase was carried out in which the memory demand was increased by imposing a brief delay during the trial. At the beginning of each trial, three arms of the eight-arm maze were blocked. Rats were allowed to obtain food on the five arms to which access was permitted during this initial “information phase” of the trial. Rats were then removed from the maze for 60 seconds, during which time the barriers on the maze were removed, thus allowing access to all eight arms. […]

Another assay deals with GABAA α5 receptor (Rattus norvegicus, UniProt P18508+P19969). The assay is described as follows: GABAA α5 receptor occupancy in vivo with Ro 15-4513 tracer (hippocampus vs cerebellum). The text has this: Adult male Long Evans rats (265-295 g, Charles River, Portage, Mich., n=4/group) were used for GABAA α5 receptor occupancy studies. Rats were individually housed in ventilated stainless-steel racks on a 12:12 light/dark cycle. Food and water were available ad libitum.
Chain of GABAA α5 receptor (P19969 32-464 limits assumed): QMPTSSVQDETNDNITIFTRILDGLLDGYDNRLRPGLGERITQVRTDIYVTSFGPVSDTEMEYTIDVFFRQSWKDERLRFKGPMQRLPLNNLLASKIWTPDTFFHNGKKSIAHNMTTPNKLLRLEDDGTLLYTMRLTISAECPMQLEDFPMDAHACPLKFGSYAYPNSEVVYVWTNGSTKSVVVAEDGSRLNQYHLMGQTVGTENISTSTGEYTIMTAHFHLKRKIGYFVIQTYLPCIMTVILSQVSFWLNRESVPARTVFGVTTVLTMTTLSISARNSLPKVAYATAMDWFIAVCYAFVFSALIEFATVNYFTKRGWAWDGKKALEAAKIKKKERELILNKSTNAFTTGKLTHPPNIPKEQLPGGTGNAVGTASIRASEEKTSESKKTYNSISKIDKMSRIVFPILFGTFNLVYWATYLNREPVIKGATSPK
Chain of GABAA α5 receptor (P18508 39-466): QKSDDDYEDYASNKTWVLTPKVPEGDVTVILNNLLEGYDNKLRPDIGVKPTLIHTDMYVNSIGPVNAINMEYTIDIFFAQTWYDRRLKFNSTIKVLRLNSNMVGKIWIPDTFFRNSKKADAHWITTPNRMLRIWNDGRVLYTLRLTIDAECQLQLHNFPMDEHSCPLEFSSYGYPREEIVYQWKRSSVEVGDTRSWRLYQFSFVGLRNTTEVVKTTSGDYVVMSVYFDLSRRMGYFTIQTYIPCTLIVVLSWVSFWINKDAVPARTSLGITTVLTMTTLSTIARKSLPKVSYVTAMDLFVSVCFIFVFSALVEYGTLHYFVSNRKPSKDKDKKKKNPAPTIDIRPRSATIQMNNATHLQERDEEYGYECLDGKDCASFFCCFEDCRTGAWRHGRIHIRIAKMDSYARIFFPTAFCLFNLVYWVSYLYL
Chain of GABAA α5 receptor (P63079 26-473 partner): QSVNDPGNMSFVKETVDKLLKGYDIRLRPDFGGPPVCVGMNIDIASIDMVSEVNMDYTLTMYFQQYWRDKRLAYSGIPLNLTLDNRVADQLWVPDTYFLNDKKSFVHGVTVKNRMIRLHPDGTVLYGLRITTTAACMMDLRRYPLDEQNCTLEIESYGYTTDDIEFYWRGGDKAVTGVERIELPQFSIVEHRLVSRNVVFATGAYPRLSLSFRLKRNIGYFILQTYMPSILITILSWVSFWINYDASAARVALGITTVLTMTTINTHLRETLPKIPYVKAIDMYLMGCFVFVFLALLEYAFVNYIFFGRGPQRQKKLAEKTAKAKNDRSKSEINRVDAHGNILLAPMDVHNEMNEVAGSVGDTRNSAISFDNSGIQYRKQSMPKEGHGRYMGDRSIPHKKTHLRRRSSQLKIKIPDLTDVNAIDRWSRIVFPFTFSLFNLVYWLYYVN
Ro 15-4513 was used as a receptor occupancy (RO) tracer for GABAA α5 receptor sites in the hippocampus and cerebellum. Ro 15-4513 was chosen as the tracer based on its selectivity for GABAA α5 receptors relative to other alpha subunit containing GABAA receptors and because it has been successfully used for GABAA α5 RO studies in animals and humans (see, e.g., Lingford-Hughes et al., J. Cereb. Blood Flow Metab. 22:878-89 (2002); Pym et al, Br. J. Pharmacol. 146: 817-825 (2005); and Maeda et al., Synapse 47: 200-208 (2003)). Ro 15-4513 (1 μg/kg), was dissolved in 25% hydroxyl-propyl beta-cyclodextrin and administered i.v. 20′ prior to the RO evaluations. Methyl 3,5-diphenylpyridazine-4-carboxylate (0.1-10 mg/kg) was synthesized by Nox Pharmaceuticals (India) and was dissolved in 25% hydroxyl-propyl beta-cyclodextrin and administered i.v. 15′ prior to tracer injection.
The rats were sacrificed by cervical dislocation 20′ post tracer injection. The whole brain was rapidly removed, and lightly rinsed with sterile water. Trunk blood was collected in EDTA coated eppendorf tubes and stored on wet ice until study completion. Hippocampus and cerebellum were dissected and stored in 1.5 ml eppendorf tubes, and placed on wet ice until tissue extraction. In a drug naïve rat, six cortical brain tissues samples were collected for use in generating blank and standard curve samples.
Acetonitrile containing 0.1% formic acid was added to each sample at a volume of four times the weight of the tissue sample. For the standard curve (0.1-30 ng/g) samples, a calculated volume of standard reduced the volume of acetonitrile. The sample was homogenized (FastPrep-24, Lysing Matrix D; 5.5 m/s, for 60 seconds or 7-8 watts power using sonic probe dismembrator; Fisher Scientific) and centrifuged for 16-minutes at 14,000 rpm. The (100 μl) supernatant solution was diluted by 300 μl of sterile water (pH 6.5). This solution was then mixed thoroughly and analyzed via LC/MS/MS for […] (tracer) and methyl 3,5-diphenylpyridazine-4-carboxylate.
Receptor occupancy was determined by the ratio method which compared occupancy in the hippocampus (a region of high GABAA α5 receptor density) with occupancy in the cerebellum (a region with low GABAA α5 receptor density) and additionally by a high dose of the GABAA α5 negative allosteric modulator L-655,708 (10 mg/kg, i.v.) to define full occupancy.

As for `COC(=O)c1c(-c2ccccc2)cnnc1-c1ccccc1` [methyl 3,5-diphenylpyridazine-4-carboxylate], in the assay on aged-impaired (AI) rats, the “average no. of errors ± SEM in retention test” value turned out to be 1.31±0.40 and the “memory performance relative to vehicle control” value is “significantly improved memory performance”. For the same molecule, at GABAA α5 receptor (0.01-10 mg/kg, i.v.), the “Ro 15-4513 binding in hippocampus” value is on record as “blocked; also recorded: dose-dependently reduced” and the “cerebellum levels (binding) of Ro 15-4513” value is “did not affect; also recorded: without affecting”. Moreover, the “GABAA α5 receptors occupied at exposures behaviorally active in aged-impaired rats” value on GABAA α5 receptor (hippocampus, FIG. 5) is recorded as “about 32%”. Besides, the “ED50 of receptor occupancy, ratio method” value at GABAA α5 receptor (i.v., hippocampus/cerebellum ratio method) came to 1.8 mg/kg. Besides, the receptor occupancy at 10 mg/kg on GABAA α5 receptor (rat, iv, read-out: GABAA α5 receptor occupancy) was above 90%. For the same molecule, on GABAA α5 receptor (rat, iv, read-out: receptor occupancy at an exposure of 180 ng/g in hippocampus), the receptor occupancy at 1 mg/kg was 32 to 39%.
